Patent US20250101011A1, “PEPTIDYL NITRILE COMPOUND AND USE THEREOF” (SHANGHAI YIDIAN PHARMACEUTICAL TECHNOLOGY DEVELOPMENT CO., …, priority 2022, published 2025)

Tests used:
DPP1 = DPP1 (Homo sapiens (Human), UniProt P53634); experiment: DPP1 activity inhibition test on U937 cells; format: cell-based; details: substrate h-Gly-phe-AFC; for inhibition at 0.005 µM: U-937, 5 nM compound; for inhibition at 0.05 µM: U-937, 50 nM compound; for IC50: intracellular enzyme activity
Experimental: After incubation at 37° C. for 1 h, add h-Gly-phe-AFC (10 μL) to each well and start reaction.

rhCathepsin C/DPP1 = rhCathepsin C/DPP1 (Homo sapiens (Human), UniProt P53634); experiment: Test for inhibition of DPP1 enzyme activity; format: biochemical; details: recombinant human cathepsin C/DPP1; substrate Gly-Arg-AMC
Experimental: Recombinant human cathepsin, rhCathepsin C/DPP1, purchased from R&D systems
Gly-Arg-AMC (hydrOCHloride), purchased from Cayman chemical
• 1) Preparation and handling of compounds: Accurately weigh the compound and dissolve it in […] of DMSO to prepare a […] of the bulk, which is further diluted as required. • 2) Screening test: Dilute recombinant human cathepsin rhCathepsin C/DPP1 and recombinant human cathepsin rhCathepsin L with an activating buffer solution, and incubate at 37° C. for 60 min. Add 4 μL of test compound to the white well of the 384-well plate. Add 4 μL of the enzyme mixture after incubation to the white wells. Block the 384-well plate and allow to stand at room temperature for 30 min, and add 8 μL of 2-fold diluted Gly-Arg-AMC (hydrochloride). Block the 384-well plate and allow to stand at room temperature for 2 h. Prepare 4× stop solution and add 4 μL stop solution to white wells. Read fluorescence data on the fluorescence meter Victor Nivo35. • 3) Data analysis:
[…] using Prism Graphpad 8.0.

Chain of rhCathepsin C/DPP1 (P53634 25-134): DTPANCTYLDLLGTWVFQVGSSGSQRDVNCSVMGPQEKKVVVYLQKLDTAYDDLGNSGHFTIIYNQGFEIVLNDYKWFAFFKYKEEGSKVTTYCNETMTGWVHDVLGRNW
Chain of rhCathepsin C/DPP1 (P53634 231-394): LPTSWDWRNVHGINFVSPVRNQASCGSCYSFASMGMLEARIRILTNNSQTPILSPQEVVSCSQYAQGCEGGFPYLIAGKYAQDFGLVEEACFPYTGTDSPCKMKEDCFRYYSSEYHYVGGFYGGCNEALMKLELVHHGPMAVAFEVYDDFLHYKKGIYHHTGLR
Chain of rhCathepsin C/DPP1 (P53634 395-463): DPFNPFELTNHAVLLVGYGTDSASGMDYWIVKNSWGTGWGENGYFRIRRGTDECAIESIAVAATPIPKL
Chain of DPP1 (P53634 25-463): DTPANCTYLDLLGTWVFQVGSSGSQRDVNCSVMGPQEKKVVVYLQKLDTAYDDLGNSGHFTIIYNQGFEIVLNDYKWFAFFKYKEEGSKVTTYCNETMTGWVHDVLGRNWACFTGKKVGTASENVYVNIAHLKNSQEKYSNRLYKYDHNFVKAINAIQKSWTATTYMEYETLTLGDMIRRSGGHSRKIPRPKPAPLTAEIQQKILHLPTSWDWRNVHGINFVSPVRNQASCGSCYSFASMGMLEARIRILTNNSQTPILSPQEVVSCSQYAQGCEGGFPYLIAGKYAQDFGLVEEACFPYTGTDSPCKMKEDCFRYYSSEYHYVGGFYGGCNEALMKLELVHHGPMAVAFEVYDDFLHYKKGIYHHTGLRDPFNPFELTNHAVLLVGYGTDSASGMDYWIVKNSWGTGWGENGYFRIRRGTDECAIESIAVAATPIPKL

Row | SMILES | inhibition at 0.005 µM (DPP1) | inhibition at 0.05 µM (DPP1) | IC50 (DPP1) | IC50 (rhCathepsin C/DPP1)
1 | N#C[C@H](Cc1ccc(-c2ccc3c(c2)COC3=O)cc1)NC(=O)[C@@H]1CNCCCO1 [Compound D44] | 30 to 75% | 75 to 100% | 14 nM | 5.2 nM
2 | N#C[C@H](Cc1ccc(-c2ccc3c(c2)C2(CN(C4COC4)C2)OC3)cc1F)NC(=O)[C@@H]1CNCCCO1 [Compound D57] | 30 to 75% | 75 to 100% | 10 nM | 2.2 nM
3 | Cn1cc(-n2c(=O)oc3ccc(-c4ccc(C[C@@H](C#N)NC(=O)[C@@H]5CNCCCO5)c(F)c4)cc32)cn1 [Compound D63] | 30 to 75% | 75 to 100% | 6.1 nM | 1.7 nM
4 | C[C@@H]1OC(=O)c2ccc(-c3ccc(C[C@@H](C#N)NC(=O)[C@@H]4CNCCCO4)c(F)c3)cc21 [Compound D74] | 30 to 75% | 75 to 100% | 8 nM | 2.9 nM
5 | N#C[C@H](Cc1ccc(-c2ccc3c(c2)COC3=O)cc1F)NC(=O)[C@@H]1CNCC2(CC2)CO1 [Compound D78] | 30 to 75% | 75 to 100% | 2.9 nM | 0.72 nM
6 | CC1CNC[C@@H](C(=O)N[C@H](C#N)Cc2ccc(-c3ccc4oc(=O)n(C)c4c3)cc2F)OC1 (stereo partly drawn) [Compound D85] | 30 to 75% | 75 to 100% | 3 nM | 3.2 nM
7 | N#C[C@H](Cc1ccc(-c2ccc3c(c2)C2(CCN(C4COC4)CC2)OC3=O)cc1F)NC(=O)[C@@H]1CNCCCO1 [Compound D92] | 30 to 75% | 75 to 100% | 5.9 nM | 0.32 nM
8 | CN1CCC(=O)c2ccc(-c3ccc(C[C@@H](C#N)NC(=O)[C@@H]4CNCCCO4)c(F)c3)cc21 [Compound D118] |  |  | 2.1 nM | 1.6 nM
9 | CCN1CCC(=O)c2ccc(-c3ccc(C[C@@H](C#N)NC(=O)[C@@H]4CNCCCO4)c(F)c3)cc21 [Compound D120] |  |  | 3.42 nM | 2.3 nM

The remaining molecules from weak to strong by IC50 (DPP1), led by results:

Row | inhibition at 0.005 µM (DPP1) | inhibition at 0.05 µM (DPP1) | IC50 (DPP1) | IC50 (rhCathepsin C/DPP1) | SMILES
10 | 30 to 75% | 75 to 100% | 32 nM | 0.18 nM | CN1CC(n2c(=O)oc3ccc(-c4ccc(C[C@@H](C#N)NC(=O)[C@@H]5CNCCCO5)c(F)c4)cc32)C1 [Compound D67]
11 |  |  | 15 nM | 1.4 nM | C[C@H]1OC(=O)c2ccc(-c3ccc(C[C@@H](C#N)NC(=O)[C@@H]4CNC[C@@H](F)CO4)c(F)c3)cc21 [Compound D123]
12 | 30 to 75% | 75 to 100% | 13.2 nM | 0.58 nM | CN1CC(n2c(=O)sc3ccc(-c4ccc(C[C@@H](C#N)NC(=O)[C@@H]5CNCCCO5)c(F)c4)cc32)C1 [Compound D70]
13 | 30 to 75% | 75 to 100% | 5.3 nM | 2.5 nM | N#C[C@H](Cc1ccc(-c2ccc3c(c2)COC3=O)cc1F)NC(=O)[C@@H]1CNCCCO1 [Compound D61]
14 | 30 to 75% | 75 to 100% | 4.6 nM | 3.7 nM | N#C[C@H](Cc1ccc(-c2ccc3c(c2)CCC3=O)cc1F)NC(=O)[C@@H]1CNCCCO1 [Compound D60]
15 |  |  | 4.6 nM | 4.2 nM | [2H]C([2H])([2H])[C@H]1OC(=O)c2ccc(-c3ccc(C[C@@H](C#N)NC(=O)[C@@H]4CNCCCO4)c(F)c3)cc21 [Compound D127]
16 |  |  | 4.3 nM | 1.36 nM | N#C[C@H](Cc1ccc(-c2ccc3sc(=O)n(C4COC4)c3c2)cc1F)NC(=O)[C@@H]1CNCCCO1 [Compound D106]
17 | 30 to 75% | 75 to 100% | 3.8 nM | 2.5 nM | CC1OC(=O)c2ccc(-c3ccc(C[C@@H](C#N)NC(=O)[C@@H]4CNCCCO4)c(F)c3)cc21 (stereo partly drawn) [Compound D73]
18 | 30 to 75% | 75 to 100% | 3.8 nM | 2.3 nM | C[C@H]1OC(=O)c2ccc(-c3ccc(C[C@@H](C#N)NC(=O)[C@@H]4CNCCCO4)c(F)c3)cc21 [Compound D75]
19 | 30 to 75% | 75 to 100% | 3 nM | 0.45 nM | Cn1c(=O)oc2ccc(-c3ccc(C[C@@H](C#N)NC(=O)[C@@H]4CNCC5(CC5)CO4)c(F)c3)cc21 [Compound D46]
